Results from patent publication US20080200436A1 (priority 2004, published 2008).

Columns and labels:
LNCaP tumour xenografts = test: LNCaP Human Prostate Cancer Xenograft Model; type: in vivo, Swiss nude mice; settings: for tumour volume versus orchiectomy and control groups: P<0.001 versus each group
Protocol: Six to eight-week-old Swiss nude mice were given one injection in the anterior flank with 5×10^6 tumour cells suspended in 0.1 ml of serum-free medium with the addition of 100 μl of Matrigel. Once tumours were established, mice were randomized into control and treatment groups.
Mice were examined twice a week, and tumours were measured with calipers across the greatest two diameters. At the time of euthanasia, tumours were removed by dissection away from adjacent organs and structures and weighed on an analytical balance. For histologic analysis, tissue samples were fixed in 10% neutral buffered formalin and processed through graded ethanols and xylenes for paraffin embedding and staining using standard methods. For calculation of percent necrosis, 5 random fields per tumour were examined at low power (10×) from tumours harvested at 40 days. The necrotic area(s) in each field was/were circumscribed electronically using the tools available in the ImagePro computerized image analysis package (Media Cybernetics) to create an area. A human operator carried out this identification and circling of the necrotic area for all analyzed issues. Using the total area of the section as the denominator, the percentage of necrosis was evaluated for each field. To obtain an average for a whole experimental tumour group, the percent necrosis for each field was averaged across the total number of tumours in the group.
Repeated measure models were used for the analysis of the in vivo tumour volumes. Several covariance structures, including AR- 1 and random coefficient models, were used and all yielded similar conclusions. The analyses reported herein are based on a random coefficient model with robust estimates of the covariance matrix. Specific comparisons between treatment groups were made using F-test based on contrasts. Statistical analyses were carried out in SAS PROC MIXED; the plots were prepared in GAUSS 5.0. Error bars represent one standard error from the mean. Time from treatment initiation to the time that tumour volumes exceeded a cut-off value (a tumour volume of >300 mm^3) were estimated with Kaplan-Meier curves and compared across treatment groups with the log-rank test. Tumour volume cut-offs were used to avoid using a survival endpoint, which would have involved significant animal distress and to employ a threshold that was appropriate for comparing the tumour growth data across all groups.

VEGF RTK = settings: cited from earlier work

In the case of COc1cc2c(Nc3ccc(Br)cc3F)ncnc2cc1OCC1CCN(C)CC1 [ZD6474, 4-(4-bromo-2-fluoroanilino)-6-methoxy-7-(1-methylpiperidin-4-ylmethoxy)quinazoline], the “delay before tumour growth resumed after compound withdrawal” value (LNCaP tumour xenografts; ZD6474 alone 50 mg/kg/day for 40 days, then withdrawn, normal mice) is reported as “approximately 15 days”, the “tumour volume versus orchiectomy and control groups” value (LNCaP tumour xenografts; ZD6474 alone 50 mg/kg/day, after 38 days of treatment) is reported as “significant differences in tumour volume” and the “tumour volume versus orchiectomy group” value (LNCaP tumour xenografts; ZD6474 alone 50 mg/kg/day, days 13 to 38 post-treatment, P<0.05) is reported as “Statistically significant differences”. The percentage of necrosis (LNCaP tumour xenografts; ZD6474 alone, 50 mg/kg/day once daily p.o., normal mice, tumours harvested at day 40, 5 tumours, vehicle control 31±7%) was 48±5%, the percentage of necrosis (LNCaP tumour xenografts; combination of orchiectomy and ZD6474 50 mg/kg/day, tumours harvested at day 40, versus 51±5% in monotherapy, P=0.01) was 73±6% and the “tumour volume versus orchiectomy and control groups” value (LNCaP tumour xenografts; combination therapy group (ZD6474 50 mg/kg/day plus orchiectomy), after 38 days) was “significant differences were observed”. The “rate of tumour growth after ZD6474 withdrawal versus untreated tumours” value (LNCaP tumour xenografts; previously ZD6474 treated tumours, delay of approximately 15 days taken into account) was “no significant difference” and the “inhibition of VEGF RTK” value (VEGF RTK) was “potent inhibitor”.
